Data: ChEMBL document CHEMBL4706474, “Tetrahydro-2-naphthyl and 2-Indanyl Triazolopyrimidines Targeting Plasmodium falciparum Dihydroorotate Dehydrogenase Display Potent and Selective Antimalarial Activity” (J Med Chem, 2016)
≈ marks a conversion by molar mass, not a printed value. Calls of active or inactive are those of the source. No cut-off for these calls is given here.

Assays:
Plasmodium falciparum [1] = experiment: Antiplasmodial activity against Plasmodium falciparum 3D7 infected in po dosed NSG mouse assessed as reduction in parasitemia administered once daily for 4 consecutive days starting from day 3 post-infection and measured 24 hrs post last dose by flow cytometric analysis; type: functional; conditions: 3D7, po, 96 h, time 4 day
[2] = Protein binding in rat plasma assessed as bound fraction by LC-MS analysis based ultracentrifugation assay; type: ADME, cell-free; conditions: read-out: PPB (converted)
Plasmodium falciparum [3] = experiment: Antimalarial activity against pyrimethamine resistant Plasmodium falciparum HB3; type: functional, organism-based
[4] = target: Dihydroorotate dehydrogenase (quinone), mitochondrial (Homo sapiens, UniProt Q02127); experiment: Inhibition of N-terminal His6-tagged human DHODH expressed in Escherichia coli BL21 using L-DHO as substrate and CoQ as co-substrate by DCIP dye based spectrophotometric assay
Chain of Dihydroorotate dehydrogenase (quinone), mitochondrial (Homo sapiens, UniProt Q02127) (Q02127 whole entry): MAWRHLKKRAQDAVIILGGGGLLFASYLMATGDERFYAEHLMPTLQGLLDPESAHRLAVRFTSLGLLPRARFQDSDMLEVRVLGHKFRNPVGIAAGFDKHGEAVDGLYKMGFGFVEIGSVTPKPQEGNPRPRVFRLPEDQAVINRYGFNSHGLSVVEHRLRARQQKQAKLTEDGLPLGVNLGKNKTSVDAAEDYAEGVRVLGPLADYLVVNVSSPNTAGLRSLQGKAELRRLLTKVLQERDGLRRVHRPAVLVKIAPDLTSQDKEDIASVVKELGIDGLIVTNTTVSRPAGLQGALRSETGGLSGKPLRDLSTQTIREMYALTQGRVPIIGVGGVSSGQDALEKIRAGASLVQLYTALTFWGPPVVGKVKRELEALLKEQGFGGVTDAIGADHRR

[5] = Protein binding in human plasma assessed as bound fraction by LC-MS analysis based ultracentrifugation assay; type: ADME, cell-free; conditions: read-out: PPB (converted)
[6] = Intrinsic clearance in mouse liver microsomes at 1 uM by LC-MS analysis; type: ADME, Microsome
[7] = Protein binding in Swiss mouse plasma at 20 mg/kg, po administered as single dose via gavage measured over 24 hrs by LC-MS analysis; type: ADME, organism-based; conditions: read-out: PPB (converted)
[8] = Unbound AUC (0 to infinity) in Swiss mouse at 20 mg/kg, po administered as single dose via gavage measured over 24 hrs by LC-MS analysis; type: ADME, organism-based; conditions: in vivo
Plasmodium falciparum [9] = experiment: Antimalarial activity against chloroquine, quinine, mefloquine, pyrimethamine, cycloguanil and sulfadoxine resistant Plasmodium falciparum Dd2; type: functional, organism-based
Plasmodium falciparum [10] = experiment: Antiplasmodial activity against Plasmodium falciparum 3D7 infected in NSG mouse assessed as blood AUC level require to show 90% reduction in parasitemia administered orally on day 3 post-infection QD for 4 days and measured after 24 hrs post dose by LC-MS/MS analysis; type: functional, organism-based; conditions: time 4.0 day
Plasmodium falciparum [11] = experiment: Antimalarial activity against Plasmodium falciparum D6; type: functional, organism-based
[12] = Intrinsic clearance in rat liver microsomes assessed per mg protein at 1 uM by LC-MS analysis; type: ADME, Microsome; conditions: microsomes, 1 µM
[13] = Elimination half-life in Swiss mouse at 20 mg/kg, po administered as single dose via gavage measured over 24 hrs by LC-MS analysis; type: ADME, organism-based; conditions: in vivo, read-out: beta t1/2 (converted)
Plasmodium falciparum [14] = experiment: Antiplasmodial activity against Plasmodium falciparum 3D7 infected in RBC assessed as reduction in parasitemia incubated for 72 hrs by SYBR green dye-based assay; type: functional, organism-based; conditions: Plasmodium falciparum, 3D7, Erythrocyte, 72 h
Cytochrome P450 2C19 = Cytochrome P450 2C19 (Homo sapiens, UniProt P33261); experiment: Inhibition of CYP2C19 in human liver microsomes using isoform-specific probe substrates in presence of NADPH-generating system by LC-MS analysis; type: ADME; conditions: read-out: IC50
Chain of Cytochrome P450 2C19 (P33261 whole entry, canonical isoform): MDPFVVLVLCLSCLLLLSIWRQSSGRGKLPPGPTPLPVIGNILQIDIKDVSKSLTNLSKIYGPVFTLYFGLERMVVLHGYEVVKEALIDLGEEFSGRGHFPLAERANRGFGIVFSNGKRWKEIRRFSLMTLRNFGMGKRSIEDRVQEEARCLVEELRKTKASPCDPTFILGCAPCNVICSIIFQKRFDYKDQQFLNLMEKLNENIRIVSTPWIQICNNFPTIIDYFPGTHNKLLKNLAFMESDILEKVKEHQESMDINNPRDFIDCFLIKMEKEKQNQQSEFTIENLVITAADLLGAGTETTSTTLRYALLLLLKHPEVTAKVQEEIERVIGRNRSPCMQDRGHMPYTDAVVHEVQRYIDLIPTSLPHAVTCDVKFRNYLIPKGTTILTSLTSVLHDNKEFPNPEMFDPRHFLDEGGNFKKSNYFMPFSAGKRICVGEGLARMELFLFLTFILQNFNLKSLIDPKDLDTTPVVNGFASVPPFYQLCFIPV

[15] = Inhibition of N-terminal His6-tagged Plasmodium falciparum DHODH expressed in Escherichia coli BL21 using L-DHO as substrate and CoQ as co-substrate by DCIP dye based spectrophotometric assay
Cytochrome P450 1A2 = target: T1, Cytochrome P450 1A2 (Homo sapiens, UniProt P05177); experiment: Inhibition of CYP1A2 in human liver microsomes using isoform-specific probe substrate in presence of NADPH-generating system by LC-MS analysis; type: ADME
T1 sequence (P05177 whole entry): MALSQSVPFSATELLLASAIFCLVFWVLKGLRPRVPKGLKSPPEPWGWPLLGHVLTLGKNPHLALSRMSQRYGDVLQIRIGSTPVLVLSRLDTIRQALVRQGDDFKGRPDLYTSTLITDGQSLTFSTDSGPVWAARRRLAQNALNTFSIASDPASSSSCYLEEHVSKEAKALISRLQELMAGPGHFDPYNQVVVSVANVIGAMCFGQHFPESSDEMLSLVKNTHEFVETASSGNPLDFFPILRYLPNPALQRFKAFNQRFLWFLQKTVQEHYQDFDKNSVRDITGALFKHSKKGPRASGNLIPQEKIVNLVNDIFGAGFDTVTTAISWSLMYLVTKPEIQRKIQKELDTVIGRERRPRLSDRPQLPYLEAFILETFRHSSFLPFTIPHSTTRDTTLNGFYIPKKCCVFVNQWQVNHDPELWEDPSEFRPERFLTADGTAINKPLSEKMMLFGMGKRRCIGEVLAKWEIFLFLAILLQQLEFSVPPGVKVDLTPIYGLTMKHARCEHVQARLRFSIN

[16] = Inhibition of N-terminal His6-tagged dog DHODH expressed in Escherichia coli BL21 using L-DHO as substrate and CoQ as co-substrate by DCIP dye based spectrophotometric assay; set-up: species or system Canis lupus familiaris
[17] = Kinetic solubility of compound in phosphate buffer at pH 6.5 measured after 30 mins by HPLC-UV based analysis; type: physicochemical; conditions: phosphate buffer, pH 6.5, read-out: Kinetic_solubility
Cytochrome P450 2C9 = Cytochrome P450 2C9 (Homo sapiens, UniProt P11712); experiment: Inhibition of CYP2C9 in human liver microsomes using isoform-specific probe substrates in presence of NADPH-generating system by LC-MS analysis; type: ADME
Chain of Cytochrome P450 2C9 (P11712 whole entry, canonical isoform): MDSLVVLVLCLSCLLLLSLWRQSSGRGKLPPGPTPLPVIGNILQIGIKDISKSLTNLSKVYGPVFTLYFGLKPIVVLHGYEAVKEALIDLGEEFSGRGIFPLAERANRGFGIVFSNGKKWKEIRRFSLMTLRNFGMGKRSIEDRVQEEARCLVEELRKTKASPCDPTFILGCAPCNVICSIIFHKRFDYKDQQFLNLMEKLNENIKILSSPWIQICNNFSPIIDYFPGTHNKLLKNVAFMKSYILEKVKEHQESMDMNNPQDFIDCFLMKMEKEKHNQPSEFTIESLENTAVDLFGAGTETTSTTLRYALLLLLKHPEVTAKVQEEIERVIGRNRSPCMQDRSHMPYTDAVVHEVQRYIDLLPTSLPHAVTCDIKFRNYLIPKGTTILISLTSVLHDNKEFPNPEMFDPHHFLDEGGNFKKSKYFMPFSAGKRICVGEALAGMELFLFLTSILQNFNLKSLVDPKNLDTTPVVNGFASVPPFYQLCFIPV

[18] = target: Dihydroorotate dehydrogenase (quinone), mitochondrial (Rattus norvegicus, UniProt Q63707); experiment: Inhibition of N-terminal His6-tagged rat DHODH expressed in Escherichia coli BL21 expressed in Escherichia coli BL21 using L-DHO as substrate and CoQ as co-substrate by DCIP dye based spectrophotometric assay
Chain of Dihydroorotate dehydrogenase (quinone), mitochondrial (Rattus norvegicus, UniProt Q63707) (Q63707 whole entry): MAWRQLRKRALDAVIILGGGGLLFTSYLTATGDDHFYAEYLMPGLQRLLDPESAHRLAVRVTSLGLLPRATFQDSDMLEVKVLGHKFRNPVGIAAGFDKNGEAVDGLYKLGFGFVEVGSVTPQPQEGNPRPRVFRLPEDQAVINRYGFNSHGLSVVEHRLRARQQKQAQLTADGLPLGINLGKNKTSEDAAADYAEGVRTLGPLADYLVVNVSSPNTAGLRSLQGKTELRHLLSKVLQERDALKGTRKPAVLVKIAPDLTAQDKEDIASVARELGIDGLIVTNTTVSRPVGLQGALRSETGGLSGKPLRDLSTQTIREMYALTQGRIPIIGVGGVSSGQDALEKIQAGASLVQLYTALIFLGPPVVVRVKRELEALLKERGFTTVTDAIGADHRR

[19] = Unbound Cmax in Swiss mouse at 20 mg/kg, po administered as single dose via gavage measured over 24 hrs by LC-MS analysis; type: ADME, organism-based; conditions: in vivo
Plasmodium falciparum [20] = experiment: Antimalarial activity against chloroquine, pyrimethamine and cycloguanil resistant Plasmodium falciparum K1; type: functional, organism-based
[21] = Inhibition of N-terminal His6-tagged Plasmodium vivax DHODH expressed in Escherichia coli BL21 using L-DHO as substrate and CoQ as co-substrate by DCIP dye based spectrophotometric assay
Plasmodium falciparum [22] = experiment: Antimalarial activity against atovaquone, chloroquine, cycloguanil and pyrimethamine resistant Plasmodium falciparum TM90C2B; type: functional, organism-based
[23] = Lipophilicity, logD of the compound at pH 7.4; type: physicochemical; conditions: buffer
[24] = Protein binding in mouse plasma assessed as bound fraction by LC-MS analysis based ultracentrifugation assay; type: ADME, cell-free; conditions: read-out: PPB (converted)
[25] = Solubility of compound in FaSSIF at pH 6.5 measured after 5 to 6 hrs by HPLC-UV based analysis

## Cc1cc(NC2Cc3cc(F)c(F)cc3C2)n2nc(C(C)(F)F)nc2n1
Plasmodium falciparum [1]
  ED90: 35 mg/kg
[2]
  fraction unbound: 0.058
Plasmodium falciparum [3]
  Activity: Active
[4]
  IC50: > 100 µM
[5]
  fraction unbound: 0.066
[6]
  intrinsic clearance: 21 µL/min
[7]
  fraction unbound at 24 h: 0.047
[8]
  fAUC: 7.9 µM·h
Plasmodium falciparum [9]
  Activity: Active
Plasmodium falciparum [10]
  AUCED90: 137 µM.hr/day
Plasmodium falciparum [11]
  Activity: Active
[12]
  Intrinsic clearance in rat liver microsomes (uL/min/mg protein): < 7 µL/min
[13]
  half-life: 2 h
Plasmodium falciparum [14]
  EC50: 0.04 µM
Cytochrome P450 2C19
  IC50: > 20 µM
[15]
  IC50: 0.052 µM
Cytochrome P450 1A2
  IC50: > 20 µM
[16]
  IC50: > 100 µM
[17]
  solubility kinetic at 0.5 h: 6.3 µg/mL (≈ 17.2 µM)
Cytochrome P450 2C9
  IC50: 18.5 µM
[18]
  IC50: > 100 µM
[19]
  fCmax: 1.4 µM
Plasmodium falciparum [20]
  Activity: Active
[21]
  IC50: 0.37 µM
Plasmodium falciparum [22]
  Activity: Active
[23]
  logD: 3.4
[24]
  fraction unbound: 0.047
[25]
  solubility: 15 µg/mL (≈ 41.1 µM)

## Cc1cc(N[C@H]2CCc3ccc(Cl)cc3C2)n2nc(C(C)(F)F)nc2n1
Plasmodium falciparum [1]
  ED90: 19 mg/kg
[2]
  fraction unbound: 0.036
Plasmodium falciparum [3]
  Activity: Active
[4]
  IC50: > 100 µM
[5]
  fraction unbound: 0.033
[6]
  intrinsic clearance: 31 µL/min
[7]
  fraction unbound at 24 h: 0.026
[8]
  fAUC: 0.59 µM·h
Plasmodium falciparum [9]
  Activity: Active
Plasmodium falciparum [10]
  AUCED90: 10.3 µM.hr/day
Plasmodium falciparum [11]
  Activity: Active
[12]
  Intrinsic clearance in rat liver microsomes (uL/min/mg protein): 38 µL/min
[13]
  half-life: 2 h
Plasmodium falciparum [14]
  EC50: 0.0012 µM
Cytochrome P450 2C19
  IC50: > 20 µM
[15]
  IC50: 0.0063 µM
Cytochrome P450 1A2
  IC50: > 20 µM
[16]
  IC50: > 100 µM
[17]
  solubility kinetic at 0.5 h: 3.1 µg/mL (≈ 8.2 µM)
Cytochrome P450 2C9
  IC50: 2.1 µM
[18]
  IC50: > 100 µM
[19]
  fCmax: 0.13 µM
Plasmodium falciparum [20]
  Activity: Active
[21]
  IC50: 0.01 µM
Plasmodium falciparum [22]
  Activity: Active
[23]
  logD: 3.9
[24]
  fraction unbound: 0.026
[25]
  solubility: 12 µg/mL (≈ 31.8 µM)
